This test addresses T1, P2X7 receptor (Homo sapiens, UniProt Q99572).
T1 construct: host or cells: THP-1 cells differentiated with LPS and IFN-γ
T1 sequence (Q99572 1-595): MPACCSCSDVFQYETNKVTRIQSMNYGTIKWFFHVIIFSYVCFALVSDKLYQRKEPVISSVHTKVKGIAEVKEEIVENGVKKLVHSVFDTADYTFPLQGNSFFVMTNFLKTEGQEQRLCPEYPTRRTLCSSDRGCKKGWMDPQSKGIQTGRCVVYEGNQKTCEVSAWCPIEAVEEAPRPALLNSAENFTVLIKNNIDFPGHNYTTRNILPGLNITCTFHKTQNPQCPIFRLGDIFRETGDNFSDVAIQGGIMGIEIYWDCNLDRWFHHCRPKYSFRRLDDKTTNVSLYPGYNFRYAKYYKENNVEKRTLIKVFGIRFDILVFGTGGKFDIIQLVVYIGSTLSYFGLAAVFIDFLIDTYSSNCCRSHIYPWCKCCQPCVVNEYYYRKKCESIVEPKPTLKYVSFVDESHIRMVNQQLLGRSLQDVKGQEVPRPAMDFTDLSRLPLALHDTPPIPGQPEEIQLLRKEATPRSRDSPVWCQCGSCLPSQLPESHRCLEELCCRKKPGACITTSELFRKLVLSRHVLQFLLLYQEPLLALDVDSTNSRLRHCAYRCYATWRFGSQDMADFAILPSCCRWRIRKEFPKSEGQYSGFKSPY
Nature of the test: IL-1β release assay in differentiated THP-1 cells stimulated with BzATP (Example 9); % inhibition and IC50. It counts as cell-based. As to conditions: BzATP 250 uM; for IC50: THP-1 cells differentiated with LPS and IFN-γ, 30 min pretreatment, IL-1β by ELISA. As for the experimental part:
The cells are then pretreated for 30 minutes with the compound of interest at the appropriate concentration in RPMI media containing 100 IU/mL penicillin, 100 ug/mL streptomycin. […] 30 uL of cell supernatant is then collected and IL-1β levels determined via ELISA (R&D systems Cat. # HSLB50) according to manufacturer's recommendations using the Tecan Safire plate reader. Background adjusted IL-1β levels of drug treated and non-treated cells are used to calculate the percent inhibition.
The compounds set forth in Table 1 were tested for activity in a cellular model as described herein.
(In an ELISA, binding on a coated surface is turned into a signal by an enzyme label.)

Broadly, the IC50 is the midpoint of a concentration-inhibition curve. With `O=C(Cc1ccc(Cl)cc1Cl)Nc1cccc2c(=O)n(C(CO)CO)ccc12` [Compound 82], the half-maximal inhibitory concentration (IC50) is 228 nM.

Regarding `COc1ccc(CC(=O)Nc2cccc3c(=O)n(CCO)ccc23)cc1Br` [Compound 66], the IC50 stood at 110 nM. The same measure, in the same setting: the result for `C[C@H](C(N)=O)n1ccc2c(NC(=O)Cc3ccccn3)cccc2c1=O` [Compound 309] reads greater than 1000 nM. With `CC(C)C(C(=O)Nc1cccc2c(=O)n(CCO)ccc12)c1ccc(Cl)cc1` (centres unmarked) [Compound 78], the IC50 is greater than 1000 nM. For `C[C@H](C(N)=O)n1ccc2c(NC(=O)Cc3ccc(C(F)(F)F)cc3)c(Cl)ccc2c1=O` [Compound 316, (R)-2-{6-Chloro-1-oxo-5-[2-(4-trifluoromethyl-phenyl)-acetylamino]-1H-isoquinolin-2-yl}-propionamide], the IC50 was found to be 2.29 nM. Where the note is “0.3 μM compound, differentiated THP-1 cells, read-out: IL-1β % Inhib. @ 0.3 μM”, the inhibition at 0.3 µM was 51 to 75%. Consider `CC(C)[C@H](CO)n1ccc2c(NC(=O)[C@H](C)c3ccc(Cl)cc3)cccc2c1=O` [Compound 273, (R)-2-(4-Chloro-phenyl)-N-[(R)-2-(1-hydroxymethyl-2-methyl-propyl)-1-oxo-1,2-dihydro-isoquinolin-5-yl]-propionamide], for which the IC50 came to 3.54 nM.

With `C[C@H](C(=O)Nc1cccc2c(=O)n([C@H](C)C(N)=O)ccc12)c1ccc(Cl)cc1` [Compound 263], the IC50 was found to be 13.3 nM. As to `C[C@H](C(N)=O)n1ccc2c(NC(=O)Cc3cccc(C#N)c3)cccc2c1=O` [Compound 288], the half-maximal inhibitory concentration (IC50) was greater than 1000 nM. Same read-out and setting: the result for `C[C@H](CO)n1ccc2c(NC(=O)Cc3ccc(C(F)(F)F)c(F)c3)cccc2c1=O` [Compound 335] reads 9.31 nM; that for `C[C@H](C(N)=O)n1ccc2c(NC(=O)Cc3ccc(Cl)nc3)cccc2c1=O` [Compound 312], greater than 1000 nM. Still for that read-out and setting: the result for `C[C@H](C(N)=O)n1ccc2c(NC(=O)Cc3cccc(C(F)(F)F)c3)cccc2c1=O` [Compound 297] reads 16.6 nM; that for `CC(C)C[C@H](CO)n1ccc2c(NC(=O)Cc3ccc(Cl)c(Cl)c3)cccc2c1=O` [Compound 275], 19.8 nM; that for `C[C@H](CO)n1ccc2c(NC(=O)Cc3ccc(Cl)cc3F)cccc2c1=O` [Compound 327], 39.4 nM. Regarding `CC(C(=O)Nc1cccc2c(=O)n([C@H](C)C(N)=O)ccc12)c1ccc(Cl)c(Cl)c1` (some centres unmarked) [Compound 254], the 50% inhibitory concentration (IC50) amounted to 25.3 nM. The same measure, in the same setting: the result for `O=C(Cc1ccc(Cl)cc1C(F)(F)F)Nc1cccc2c(=O)n(C(CO)CO)ccc12` [Compound 228] reads 212 nM. The same measure, in the same setting: the result for `O=C(Cc1ccc(F)c(C(F)(F)F)c1)Nc1c(Cl)ccc2c(=O)n(CCO)ccc12` [Compound 386, N-[6-Chloro-2-(2-hydroxy-ethyl)-1-oxo-1,2-dihydro-isoquinolin-5-yl]-2-(4-fluoro-3-trifluoromethyl-phenyl)-acetamide] reads 5.45 nM. Regarding `C[C@H](C(N)=O)n1ccc2c(NC(=O)Cc3ccc(Cl)cc3C(F)(F)F)cccc2c1=O` [Compound 241], the half-maximal inhibitory concentration (IC50) amounted to 23.6 nM. Still for that read-out and setting: the same measure for `COc1ccc(OC)c(CC(=O)Nc2cccc3c(=O)n(CCO)ccc23)c1` [Compound 77]: greater than 1000 nM; for `CC(C(=O)Nc1cccc2c(=O)n([C@H](CO)C(N)=O)ccc12)c1ccc(Cl)cc1` (stereo partly drawn) [Compound 252, (R)-2-{5-[2-(4-Chloro-phenyl)-propionylamino]-1-oxo-1H-isoquinolin-2-yl}-3-hydroxy-propionamide]: 161 nM; for `C[C@@H](C(=O)Nc1cccc2c(=O)n([C@@H](C)C(N)=O)ccc12)c1ccc(Cl)cc1` [Compound 266]: 38.7 nM. Still for that read-out and setting: the result for `CNC(=O)[C@@H](C(C)C)n1ccc2c(NC(=O)[C@@H](C)c3ccc(Cl)cc3)cccc2c1=O` [Compound 276, (R)-2-{5-[(S)-2-(4-Chloro-phenyl)-propionylamino]-1-oxo-1H-isoquinolin-2-yl}-3,N-dimethyl-butyramide] reads 53.3 nM; that for `C[C@H](C(N)=O)n1ccc2c(NC(=O)Cc3cc(F)c(F)cc3F)cccc2c1=O` [Compound 305], 36.3 nM; that for `C[C@H](C(N)=O)n1ccc2c(NC(=O)[C@H](C)c3ccc(Cl)cc3)cccc2c1=O` [Compound 262], 73.1 nM.

In the case of `O=C(Cc1ccc(Cl)c(Cl)c1)Nc1cccc2c(=O)n(C[C@H]3CCCN3)ccc12` [Compound 245], the half-maximal inhibitory concentration (IC50) was 46.5 nM. On the same count and under the same terms, the result for `O=C(CCc1cc(C(F)(F)F)cc(C(F)(F)F)c1)Nc1cccc2c(=O)n(CCO)ccc12` [Compound 61] reads greater than 1000 nM; that for `C[C@H](C(N)=O)n1ccc2c(NC(=O)Cc3ccccc3F)cccc2c1=O` [Compound 294], 663 nM.

As for `C[C@@H](C(=O)Nc1cccc2c(=O)n([C@@H](C)CO)ccc12)c1ccc(Cl)c(Cl)c1` [Compound 317], the IC50 was 93.7 nM. Same read-out and setting: the result for `CC(C(=O)Nc1cccc2c(=O)n([C@H](C)C(N)=O)ccc12)c1ccc(Cl)cc1` (some centres unmarked) [Compound 247] reads 18.8 nM; that for `C[C@@H](C(N)=O)n1ccc2c(NC(=O)Cc3cccc(C(F)(F)F)c3F)cccc2c1=O` [Compound 349], 48.9 nM; that for `C[C@H](CO)n1ccc2c(NC(=O)Cc3ccc(Cl)c(Cl)c3)cccc2c1=O` [Compound 333, 2-(3,4-Dichloro-phenyl)-N-[2-((R)-2-hydroxy-1-methyl-ethyl)-1-oxo-1,2-dihydro-isoquinolin-5-yl]-acetamide], 1.01 nM. Same read-out and setting: the result for `C[C@H](C(N)=O)n1ccc2c(NC(=O)Cc3cccc(OC(F)(F)F)c3)cccc2c1=O` [Compound 313] reads 713 nM.

As for `CC(C)[C@H](C(=O)O)n1ccc2c(NC(=O)[C@@H](C)c3ccc(Cl)cc3)cccc2c1=O` [Compound 323, (R)-2-{5-[(S)-2-(4-Chloro-phenyl)-propionylamino]-1-oxo-1H-isoquinolin-2-yl}-3-methyl-butyric acid], the IC50 was determined as 320 nM. The same measure, in the same setting: the same measure for `Cc1ccc2c(=O)n([C@H](C)CO)ccc2c1NC(=O)Cc1ccc(C(F)(F)F)cc1` [Compound 397]: 5.54 nM.

Consider `O=C(Cc1ccc(Cl)c(C(F)(F)F)c1)Nc1cccc2c(=O)n(C[C@H]3CCCN3)ccc12` [Compound 243], for which the IC50 stood at 35.8 nM.

In the case of `C[C@H](C(N)=O)n1ccc2c(NC(=O)Cc3ccc(F)cc3Cl)cccc2c1=O` [Compound 291], the IC50 was determined as 20.6 nM. On the same count and under the same terms, the result for `C[C@@H](C(N)=O)n1ccc2c(NC(=O)Cc3ccc(Cl)cc3F)cccc2c1=O` [Compound 350] reads 13.6 nM; that for `C[C@H](C(N)=O)n1ccc2c(NC(=O)Cc3ccc(Cl)c(F)c3)cccc2c1=O` [Compound 300], 5.96 nM.

Turning to `C[C@@H](C(N)=O)n1ccc2c(NC(=O)Cc3ccc(Cl)nc3)cccc2c1=O` [Compound 310], the half-inhibitory concentration (IC50) was greater than 1000 nM. In the case of `C[C@H](C(N)=O)n1ccc2c(NC(=O)Cc3ccc(F)c(F)c3)cccc2c1=O` [Compound 303], the IC50 is 15.5 nM. Regarding `C[C@@H](CO)n1ccc2c(NC(=O)Cc3ccc(Cl)c(F)c3)cccc2c1=O` [Compound 334], the concentration for half-maximal inhibition (IC50) was 202 nM. Same read-out and setting: the same measure for `Cc1ccc2c(=O)n([C@H](C)CO)ccc2c1NC(=O)Cc1ccc(F)c(C(F)(F)F)c1` [Compound 394]: 0.74 nM; for `C[C@H](C(=O)Nc1cccc2c(=O)n([C@@H](C(N)=O)c3ccccc3)ccc12)c1ccc(Cl)cc1` [Compound 279, (S)—N-[2-((R)-Carbamoyl-phenyl-methyl)-1-oxo-1,2-dihydro-isoquinolin-5-yl]-2-(4-chloro-phenyl)-propionamide]: 106 nM. For `C[C@@H](C(N)=O)n1ccc2c(NC(=O)Cc3ccc(Cl)c(C(F)(F)F)c3)cccc2c1=O` [Compound 353], the IC50 was determined as 29.6 nM. For the molecule `C[C@@H](C(N)=O)n1ccc2c(NC(=O)Cc3ccc(C(F)(F)F)cc3)cccc2c1=O` [Compound 351], the half-inhibitory concentration (IC50) is 35.8 nM. Still for that read-out and setting: the result for `O=C(Cc1ccc(Cl)c(C(F)(F)F)c1)Nc1cccc2c(=O)n(CC3CCNCC3)ccc12` [Compound 257, 2-(4-Chloro-3-trifluoromethyl-phenyl)-N-(1-oxo-2-piperidin-4-ylmethyl-1,2-dihydro-isoquinolin-5-yl)-acetamide] reads 39 nM; that for `CCC(C(=O)Nc1cccc2c(=O)n(CCO)ccc12)c1ccccc1` (centres unmarked) [Compound 74], greater than 1000 nM. As to `COc1cccc(CC(=O)Nc2cccc3c(=O)n(CCO)ccc23)c1` [Compound 75], the 50% inhibitory concentration (IC50) was greater than 1000 nM. With `CNC(=O)[C@@H](CO)n1ccc2c(NC(=O)C(C)c3ccc(Cl)c(Cl)c3)cccc2c1=O` (stereo partly drawn) [Compound 270, (R)-2-{5-[2-(3,4-Dichloro-phenyl)-propionylamino]-1-oxo-1H-isoquinolin-2-yl}-3-hydroxy-N-methyl-propionamide], the IC50 stood at 37.4 nM. `C[C@H](C(N)=O)n1ccc2c(NC(=O)Cc3ccc(C(F)(F)F)c(F)c3)cccc2c1=O` [Compound 306]: the concentration for half-maximal inhibition (IC50) is 5.07 nM.

(Values after US7816371B2, “Bicycloheteroaryl compounds as P2X7 modulators and uses thereof” (Renovis, Inc., priority 2006, dated 2010).)
